Measurements published in paper PMC4729137, “Functional analysis of androgen receptor mutations that confer anti-androgen resistance identified in circulating cell-free DNA from prostate cancer patients” (Genome Biology, 2016).
Substitutions are numbered along the chain they refer to.

What was measured:
H875Q-AR = molecular target: T1, H875Q-AR (Homo sapiens, UniProt P10275, H875Q); format: cell-based; settings: AR mutant H875Q; transfected PC3 cells; 0.1 nM R1881; drug 0 to 50 μM
T1 sequence (P10275 1-920 H875Q): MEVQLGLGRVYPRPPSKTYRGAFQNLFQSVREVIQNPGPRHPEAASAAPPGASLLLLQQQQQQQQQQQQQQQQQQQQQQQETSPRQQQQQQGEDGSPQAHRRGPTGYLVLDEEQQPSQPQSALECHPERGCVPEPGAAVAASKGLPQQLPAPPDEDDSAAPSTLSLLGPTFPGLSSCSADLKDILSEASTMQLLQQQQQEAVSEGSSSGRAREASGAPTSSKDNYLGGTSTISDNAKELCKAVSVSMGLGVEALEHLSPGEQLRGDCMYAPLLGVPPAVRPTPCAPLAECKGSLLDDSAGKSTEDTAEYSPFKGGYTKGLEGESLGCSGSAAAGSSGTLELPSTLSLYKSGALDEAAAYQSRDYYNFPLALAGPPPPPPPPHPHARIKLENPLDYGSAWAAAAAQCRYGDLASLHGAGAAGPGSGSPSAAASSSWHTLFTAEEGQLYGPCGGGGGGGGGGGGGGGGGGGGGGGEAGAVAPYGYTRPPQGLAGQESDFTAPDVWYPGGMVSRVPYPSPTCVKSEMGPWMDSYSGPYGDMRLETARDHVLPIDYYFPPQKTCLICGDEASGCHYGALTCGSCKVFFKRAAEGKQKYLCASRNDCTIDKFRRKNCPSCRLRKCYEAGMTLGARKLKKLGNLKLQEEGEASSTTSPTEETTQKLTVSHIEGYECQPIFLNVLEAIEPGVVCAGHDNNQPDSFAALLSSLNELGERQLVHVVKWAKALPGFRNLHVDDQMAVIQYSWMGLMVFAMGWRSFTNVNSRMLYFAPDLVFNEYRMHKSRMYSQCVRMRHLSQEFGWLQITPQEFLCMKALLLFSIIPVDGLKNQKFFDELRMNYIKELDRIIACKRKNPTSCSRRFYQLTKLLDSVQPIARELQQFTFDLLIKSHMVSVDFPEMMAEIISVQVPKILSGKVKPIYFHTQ

L882I-AR = molecular target: T2, L882I-AR (Homo sapiens, UniProt P10275, L882I); assay: cell-based
T2 sequence (P10275 1-920 L882I): T1 sequence (P10275 1-920 H875Q) with Q875H, L882I

With `CC(C)(O)C(=O)Nc1ccc([N+](=O)[O-])c(C(F)(F)F)c1` [Hydroxyflutamide, hydroxyflutamide] the “Agonist response to treatment” value (H875Q-AR) was “Partial”.
`C[C@]12CCC(=O)C=C1CC[C@@H]1[C@@H]2[C@@H](O)C[C@@]2(C)[C@H]1CC[C@]2(O)C(=O)CO` [hydrocortisone] showed an EC50 (L882I-AR) greater than 500 nM.
